How the values were obtained:
in vitro = conditions: human, uninfected SupT1 cells
[1] = test system: downmodulation of MHC-I molecules expressed on the surface of HIV infected SupT1 cells; experiment: cells; conditions: Human immunodeficiency virus 1, SUP-T1, read-out: EC50 for inhibition of MHC-I downmodulation utilizing the R1 parameter

SMILES	CC50 at 48 h (in vitro) [nM]	EC50 [1] [nM]
Cc1ccc(N(Cc2ccccc2)C(=O)COc2cccc3c2OC(C)(C)C3)nn1 [Compound 36, N-Benzyl-2-((2,2-dimethyl-2,3-dihydrobenzofuran-7-yl)oxy)-N-(6-methylpyridazin-3-yl)acetamide]	> 100000	23600
CC1(C)Cc2cccc(OCC(=O)N(Cc3ccccc3)c3nc4c(s3)CCCC4)c2O1 [Compound 37, N-Benzyl-2-((2,2-dimethyl-2,3-dihydrobenzofuran-7-yl)oxy)-N-(4,5,6,7-tetrahydrobenzo[d]thiazol-2-yl)acetamide]	150	2
CC1(C)Cc2cccc(OCC(=O)N(Cc3ccccn3)c3nc4c(s3)CCCC4)c2O1 [Compound 38, 2-((2,2-Dimethyl-2,3-dihydrobenzofuran-7-yl)oxy)-N-(pyridin-2-ylmethyl)-N-(4,5,6,7-tetrahydrobenzo[d]thiazol-2-yl)acetamide]	250	6
Cc1cccc(CN(C(=O)COc2cccc3c2OC(C)(C)C3)c2nc3c(s2)CCCC3)n1 [Compound 39, 2-((2,2-Dimethyl-2,3-dihydrobenzofuran-7-yl)oxy)-N-((6-methylpyridin-2-yl)methyl)-N-(4,5,6,7-tetrahydrobenzo[d]thiazol-2-yl)acetamide]	> 100000	20
Cc1ccnc(CN(C(=O)COc2cccc3c2OC(C)(C)C3)c2nc3c(s2)CCCC3)c1 [Compound 41, 2-((2,2-Dimethyl-2,3-dihydrobenzofuran-7-yl)oxy)-N-((4-methylpyridin-2-yl)methyl)-N-(4,5,6,7-tetrahydrobenzo[d]thiazol-2-yl)acetamide]	> 125000	20
Cc1cccnc1CN(C(=O)COc1cccc2c1OC(C)(C)C2)c1nc2c(s1)CCCC2 [Compound 42, 2-((2,2-Dimethyl-2,3-dihydrobenzofuran-7-yl)oxy)-N-((3-methylpyridin-2-yl)methyl)-N-(4,5,6,7-tetrahydrobenzo[d]thiazol-2-yl)acetamide]	> 125000	7300
Cc1csc(N(Cc2ncccn2)C(=O)COc2cccc3c2OC(C)(C)C3)n1 [Compound 43, 2-((2,2-Dimethyl-2,3-dihydrobenzofuran-7-yl)oxy)-N-(4-methylthiazol-2-yl)-N-(pyrimidin-2-ylmethyl)acetamide]	> 100000	710
CC1(C)Cc2cccc(OCC(=O)N(Cc3ncccn3)c3nc4c(s3)CCCC4)c2O1 [Compound 44, 2-((2,2-Dimethyl-2,3-dihydrobenzofuran-7-yl)oxy)-N-(pyrimidin-2-ylmethyl)-N-(4,5,6,7-tetrahydrobenzo[d]thiazol-2-yl)acetamide]	> 125000	33
CC1(C)Cc2cccc(OCC(=O)N(Cc3ccccn3)c3nc4c(F)cccc4s3)c2O1 [Compound 45, 2-((2,2-Dimethyl-2,3-dihydrobenzofuran-7-yl)oxy)-N-(4-fluorobenzo[d]thiazol-2-yl)-N-(pyridin-2-ylmethyl)acetamide]	> 100000	510
Cn1ccnc1CN(C(=O)COc1cccc2c1OC(C)(C)C2)c1nc2c(s1)CCCC2 [Compound 46, 2-((2,2-Dimethyl-2,3-dihydrobenzofuran-7-yl)oxy)-N-((1-methyl-1H-imidazol-2-yl)methyl)-N-(4,5,6,7-tetrahydrobenzo[d]thiazol-2-yl)acetamide]	> 125000	59
Cc1ccc(CN(C(=O)COc2cccc3c2OC(C)(C)C3)c2ccc(C)cn2)cc1 [Compound 47, 2-((2,2-Dimethyl-2,3-dihydrobenzofuran-7-yl)oxy)-N-(4-methylbenzyl)-N-(5-methylpyridin-2-yl)acetamide]	> 125000	5500
Cc1ccc(N(Cc2ccccn2)C(=O)COc2cccc3c2OC(C)(C)C3)nc1 [Compound 48, 2-((2,2-Dimethyl-2,3-dihydrobenzofuran-7-yl)oxy)-N-(5-methylpyridin-2-yl)-N-(pyridin-2-ylmethyl)acetamide]	> 100000	21000
Cc1ccc(CN(C(=O)COc2cccc3c2OC(C)(C)C3)c2ccc(C)cn2)nc1 [Compound 49, 2-((2,2-Dimethyl-2,3-dihydrobenzofuran-7-yl)oxy)-N-(5-methylpyridin-2-yl)-N-((5-methylpyridin-2-yl)methyl)acetamide]	> 125000	3100
Cc1csc(N(CCc2ccccc2)C(=O)COc2cccc3c2OC(C)(C)C3)n1 [Compound 50, 2-((2,2-Dimethyl-2,3-dihydrobenzofuran-7-yl)oxy)-N-(4-methylthiazol-2-yl)-N-phenethylacetamide]	> 125000	14000
CC1(C)Cc2cccc(OCC(=O)N(Cc3ccc[nH]3)c3nc4c(s3)CCCC4)c2O1 [Compound 51, N-((1H-Pyrrol-2-yl)methyl)-2-((2,2-dimethyl-2,3-dihydrobenzofuran-7-yl)oxy)-N-(4,5,6,7-tetrahydrobenzo[d]thiazol-2-yl)acetamide]	> 125000	15
CC1(C)Cc2cccc(OCC(=O)N(Cc3ccncc3)c3nc4c(s3)CCCC4)c2O1 [Compound 52, 2-((2,2-Dimethyl-2,3-dihydrobenzofuran-7-yl)oxy)-N-(pyridin-4-ylmethyl)-N-(4,5,6,7-tetrahydrobenzo[d]thiazol-2-yl)acetamide]	1000	32

SMILES	CC50 at 48 h (in vitro) [nM]	EC50 [1] [nM]
COc1ccccc1N(C(=O)COc1cccc2c1OC(C)(C)C2)c1nc(C)cs1 [Compound 55, 2-((2,2-Dimethyl-2,3-dihydrobenzofuran-7-yl)oxy)-N-(2-methoxyphenyl)-N-(4-methylthiazol-2-yl)acetamide]	> 125000	210
CCCN(C(=O)COc1cccc2c1OC(C)(C)C2)c1nc2c(s1)CCCC2 [Compound 57, 2-((2,2-dimethyl-2,3-dihydrobenzofuran-7-yl)oxy)-N-propyl-N-(4,5,6,7-tetrahydrobenzo[d]thiazol-2-yl)acetamide]	> 125000	2
Cc1csc(N(C(=O)COc2cccc3c2OC(C)(C)C3)c2ccc(F)cc2)n1 [Compound 58, 2-((2,2-Dimethyl-2,3-dihydrobenzofuran-7-yl)oxy)-N-(4-fluorophenyl)-N-(4-methylthiazol-2-yl)acetamide]	> 100000	290
Cc1csc(N(C(=O)COc2cccc3c2OC(C)(C)C3)c2ccc(Cl)cc2)n1 [Compound 59, N-(4-Chlorophenyl)-2-((2,2-dimethyl-2,3-dihydrobenzofuran-7-yl)oxy)-N-(4-methylthiazol-2-yl)acetamide]	> 100000	860
Cc1csc(N(C(=O)COc2cccc3c2OC(C)(C)C3)c2ccccc2C)n1 [Compound 60, 2-((2,2-Dimethyl-2,3-dihydrobenzofuran-7-yl)oxy)-N-(4-methylthiazol-2-yl)-N-(o-tolyl)acetamide]	> 100000	3800
Cc1csc(N(C(=O)COc2cccc3c2OC(C)(C)C3)c2ccccc2Cl)n1 [Compound 61, N-(2-Chlorophenyl)-2-((2,2-dimethyl-2,3-dihydrobenzofuran-7-yl)oxy)-N-(4-methylthiazol-2-yl)acetamide]	> 100000	2170
COc1ccc(N(C(=O)COc2cccc3c2OC(C)(C)C3)c2nc(C)cs2)cc1 [Compound 62, 2-((2,2-Dimethyl-2,3-dihydrobenzofuran-7-yl)oxy)-N-(4-methoxyphenyl)-N-(4-methylthiazol-2-yl)acetamide]	> 100000	480
C=CCN(C(=O)COc1cccc2c1OC(C)(C)C2)c1nc(C)cs1 [Compound 63, N-Allyl-2-((2,2-dimethyl-2,3-dihydrobenzofuran-7-yl)oxy)-N-(4-methylthiazol-2-yl)acetamide]	> 100000	190
Cc1ccc(N(C(=O)COc2cccc3c2OC(C)(C)C3)c2nc(C)cs2)cc1 [Compound 64, 2-((2,2-Dimethyl-2,3-dihydrobenzofuran-7-yl)oxy)-N-(4-methylthiazol-2-yl)-N-(p-tolyl)acetamide]	> 100000	570
Cc1csc(N(C(=O)COc2cccc3c2OC(C)(C)C3)c2cccnc2)n1 [Compound 65, 2-((2,2-Dimethyl-2,3-dihydrobenzofuran-7-yl)oxy)-N-(4-methylthiazol-2-yl)-N-(pyridin-3-yl)acetamide]	> 125000	880
CC1(C)Cc2cccc(OCC(=O)Nc3ccc(Br)cn3)c2O1 [Compound 66, N-(5-Bromopyridin-2-yl)-2-((2,2-dimethyl-2,3-dihydrobenzofuran-7-yl)oxy) acetamide]	> 125000	3400
C=Cc1ccc(NC(=O)COc2cccc3c2OC(C)(C)C3)nc1 [Compound 67, 2-((2,2-dimethyl-2,3-dihydrobenzofuran-7-yl)oxy)-N-(5-vinylpyridin-2-yl)acetamide]	> 125000	2200
CCc1ccc(NC(=O)COc2cccc3c2OC(C)(C)C3)nc1 [Compound 68, 2-((2,2-dimethyl-2,3-dihydrobenzofuran-7-yl)oxy)-N-(5-ethylpyridin-2-yl)acetamide]	> 125000	540
C=C(C)c1ccc(NC(=O)COc2cccc3c2OC(C)(C)C3)nc1 [Compound 69, 2-((2,2-Dimethyl-2,3-dihydrobenzofuran-7-yl)oxy)-N-(5-(prop-1-en-2-yl)pyridin-2-yl)acetamide]	> 125000	5000
CC(C)c1ccc(NC(=O)COc2cccc3c2OC(C)(C)C3)nc1 [Compound 70, 2-((2,2-Dimethyl-2,3-dihydrobenzofuran-7-yl)oxy)-N-(5-isopropylpyridin-2-yl)acetamide]	> 125000	890
CC1(C)Cc2cccc(OCC(=O)Nc3ccc(C4CC4)cn3)c2O1 [Compound 71, N-(5-Cyclopropylpyridin-2-yl)-2-((2,2-dimethyl-2,3-dihydrobenzofuran-7-yl)oxy)acetamide]	> 125000	150
